This is an account of results in US8940334B2, “Pharmaceutical composition of an anthracycline” (priority 2007, dated 2015).

SMILES strings stand for the structures.

Data set [1] has as its system human mammary adenocarcinoma cells (MCF-7). In words: Cytotoxicity of elution fractions from DC Bead microspheres on MCF-7 cells (ATPLite). In kind it is cell-based. To be noted: MCF-7, 72 h treatment. Here is the method:
(§1) The release of nemorubicin hydrochloride from DC Bead™ microspheres was evaluated in PBS and in human plasma. At the end of the loading time and at each elution point, loaded nemorubicin hydrochloride-DC Bead™ microspheres were washed by warm water and finally incubated in warm PBS or human plasma at 37° C.
At desiderate elution time supernatant was collected carefully by syringe, avoiding beads aspiration. Then solutions were filtered by 70 μm nylon filcon filter (BD Biosciences) to avoid carry-over contamination, collected in Eppendorf tubes and finally stored at −20° C. for further analysis.
Samples were split for: • evaluation of the cytotoxicity of nemorubicin hydrochloride and doxorubicin against tumor cells (as dose able to inhibit cell growth by 50%; IC50). • evaluation of the released amount of nemorubicin hydrochloride and doxorubicin by HPLC-MS/UV analysis (the method used is reported in Example 2). In Vitro Antitumor Activity
The cytotoxic effect of elution fractions was investigated on human mammary adenocarcinoma cells (MCF-7, ECACC source). Cells were grown in E-MEM/Glutamax medium (Invitrogen), 10% FBS (EuroClone), and 1% Non-Essential AminoAcids (Invitrogen) and maintained at 37° C. at 5% CO2. For cytotoxicity test, cells were plated at density of 5,000 cells/well in 96-well plates (Corning) and grown for 24 h before treatment. Cells were treated for 72 h by raise dilutions of elution fractions. At the end of treatment, cells were incubated with TS substrate (ATPLite™). Plates were read for chemiluminescence (480/540 nm) by Perkin Elmer Envision™ plate reader.
IC50 were calculated by LSW Data Analysis™ curve fitting. The IC50 value of nemorubicin hydrochloride and doxorubicin in the medium eluted from DC Bead™ microspheres was compared to that of standard nemorubicin hydrochloride or doxorubicin fresh solutions.

A short description of data set [2]: Size and appearance of drug-loaded DC Bead microspheres by image analysis at microscope. In kind it is physicochemical. To be noted: doxorubicin 25 mg drug/ml DC Bead; over loading and elution in PBS. Here is the method:
Nemorubicin hydrochloride was diluted at the concentration range of from 0.1 to 2.0 mg drug/ml DC Bead™ that represent clinically applicable doses. In the following examples microspheres of 100-300 μm diameters (DC Bead™) were used. Similar results were obtained when microspheres of 300-500 μm diameters (DC Bead™) were used.
The size and spherical shape of microspheres were analyzed after loading with nemorubicin hydrochloride and during the release of the drug up to 16 days. As comparison DC Bead™ microspheres were loaded with doxorubicin at the clinically used dosage of 25 mg drug/ml DC Bead™.
Drug loading: DC Bead™ microspheres were conditioned in water for 10 min. Then the water was discarded and nemorubicin hydrochloride or doxorubicin was added.
Drug release: DC™ microspheres with or without drug were incubated in Phosphate Buffer Saline (PBS) or human plasma from healthy donors up to 16 days. The size and spherical shape of DC Bead™ microspheres were measured at different time points.
Size and appearance of nemorubicin hydrochloride-DC Bead™ microspheres during drug-loading and drug-elution were determined by a Leica DM IRB (Leica) microscope equipped by Evolution MP Color CCD Camera (Media Cybernatics). The analysis of size was performed by Image Pro Plus™ (Media Cybernatics). […] At least four field-images for samples were analyzed to support the statistical analysis.

Data set [3] in a line: Elution efficiency from HepaSphere microspheres (HPLC-MS/UV). In kind it is physicochemical. The conditions noted are these: up to 168 h. As for the experimental part:
Nemorubicin hydrochloride (1 mg drug/ml HepaSphere™, 2.5 mg drug/ml HepaSphere™) and doxorubicin (1 mg drug/ml HepaSphere™, 2.5 mg drug/ml HepaSphere™, 25 mg drug/ml HepaSphere™) were mixed with HepaSphere™ microspheres (50-100 μm). After 20 minutes of incubation the elution efficiency of nemorubicin hydrochloride and doxorubicin was measured up to 168 h.
At desiderate elution time, supernatant was collected carefully by syringe, avoiding beads aspiration. Then solutions were collected in Eppendorf tubes and stored at −20° C. for further analysis.
The released amount of nemorubicin hydrochloride and doxorubicin was evaluated by HPLC-MS/UV analysis (the method used is reported in Example 2).

A short description of data set [4]: Release of drug from DC Bead microspheres in human plasma. Type of data set: physicochemical. To be noted: 37° C. As for the experimental part:
The measurements of nemorubicin hydrochloride in the elution medium were carried out with HPLC-MS/UV analysis performed by Finnigan MAT/LCQ Deca XP ion trap MS equipped with ESI ion source, directly connected to a Surveyor HPLC system (Thermo Electron Corporation). HPLC-MS/UV separations were set up on Phenomenex Gemini Phenyl, 3 μm, 50×4.6 mm by Acetate Buffer:Acetonitrile 1:9. UV detection was done at 480 nm and for ESI-MS analysis a heated capillary temperature at 275° C. and spray voltage at 4 KV was applied.
as §1
At desiderate elution time supernatant was collected carefully by syringe, avoiding beads aspiration. Then solutions were filtered by 70 μm nylon filcon filter (BD Biosciences) to avoid carry-over contamination, collected in Eppendorf tubes and finally stored at −20° C. for further analysis. […]

One may read the IC50 as the concentration needed to halve the response being measured. With `COc1cccc2c1C(=O)c1c(O)c3c(c(O)c1C2=O)C[C@@](O)(C(=O)CO)C[C@@H]3O[C@H]1C[C@H](N)[C@H](O)[C@H](C)O1` [Doxorubicin, reference compound], the IC50 in data set [1] (MCF7, 72 h, Standard (fresh drug solution)) was determined as 250 nM; in data set [1] (MCF7, 72 h, fraction eluted at 72 h) it was 140 nM; in data set [1] (MCF7, fraction eluted at 24 h), 250 nM; in data set [1] (MCF7, fraction eluted at 48 h) it was 180 nM; in data set [1] (MCF7, fraction eluted at 96 h) it was 200 nM; in data set [1] (MCF7, fraction eluted at 120 h) it was 450 nM. Further, the half-maximal inhibitory concentration (IC50) was 1500 nM in data set [1] (MCF7, fraction eluted at 144 h) and 300 nM in data set [1] (MCF7, fraction eluted from DC Bead microspheres at 1 h). In data set [2], the “size range of loaded microspheres (diameter)” value was 85-125 μm. Besides, the “% total released drug” value worked out at 7% in data set [3] (Dose 1 mg drug/ml HepaSphere (50-100 μm)), 4% in data set [3] (Dose 2.5 mg drug/ml HepaSphere (50-100 μm)) and 35% in data set [3] (Dose 25 mg drug/ml HepaSphere (50-100 μm)). Further, the total drug released in data set [4] is 2.5%.
